Data reported in patent US20210322582A1, “RADIOACTIVE IMIDAZOTHIADIAZOLE DERIVATIVE COMPOUND” (Nihon Medi-Physics Co., Ltd., priority 2018, published 2021).

How the values were obtained:
Format in all cases: in vivo
MDA-MB-231 tumor = assay: SPECT/CT imaging using [^111In]ITDA1; settings: MDA-MB-231 cancer-bearing mouse, 24 hours from administration
Procedure: (§1) HT-29 cells (5×10^6 cells/mouse) and MDA-MB-231 cells (5×10^6 cells/mouse) were subcutaneously inoculated into the left shoulders of 5-week old male BALB/c nude mice, respectively. A saline solution (150 μL) in which [^111In]ITDA1 (23.8 to 26.2 MBq) had been dissolved was administered to each of the cancer-bearing mice via the tail vein. Each of the mice was subjected to SPECT/CT imaging after the lapse of 1, 4, 8, and 24 hours from the administration. U-SPECT-II/CT (single-pinhole collimator 0.6 or 1.0 mm, resolution: 0.45 mm) manufactured by Milab was used as the SPECT/CT device, and data were collected for 60 minutes in 1, 4, 8, and 24 hours from the administration.
(§2) The collected data were reconstructed by a three-dimensional ordered-subset expectation maximization (3D-OSEM) method. The results of HT-29 cancer-bearing mouse are shown in FIG. 6A, and the results of MDA-MB-231 cancer-bearing mouse are shown in FIG. 6B.

HT-29 tumor = assay: SPECT/CT imaging using [^111In]ITDA1; settings: HT-29 cancer-bearing mouse, 24 hours from administration
Procedure: as §1, §2

[1] = tested on: MDA-MB-231-transplanted tumor; assay: Biodistribution of [^111In]ITDA3 in MDA-MB-231 cancer-bearing mouse; settings: MDA-MB-231 mouse, 24 hours after administration
Procedure: (§3) HT-29 cells and MDA-MB-231 cells (5×10^6 cells/mouse) were subcutaneously inoculated into the left shoulders of 5-week old male BALB/c nude mice, respectively. A saline solution (100 μL) in which[^111In]ITDA3 (40 kBq) had been dissolved was administered to each of the cancer-bearing mice (n=5) via the tail vein. The HT-29 cancer-bearing mice were slaughtered after the lapse of 1, 4, and 24 hours from the administration, the MDA-MB-231 cancer-bearing mouse was slaughtered after the lapse of 24 hours from the administration, and the blood, spleen, pancreas, stomach, intestines, kidney, liver, heart, lungs, brain, HT-29 or MDA-MB-231-transplanted tumor, and muscle were recovered from each of the mice. The weight of each organ was measured, and the amount of radioactivity in each organ was measured by using a gamma counter. The accumulation of radioactivity in each organ except for stomach was expressed by % ID (injected dose)/g obtained by dividing the ratio of the amount of radioactivity of each organ to the administered amount of radioactivity by the organ weight. The stomach was expressed by % ID (injected dose).

HT-29-transplanted tumor = assay: Biodistribution of [^111In]ITDA3 in HT-29 cancer-bearing mouse; settings: for Accumulation of radioactivity: Blood / Accumulation of radioactivity: Brain / Accumulation of radioactivity: HT-29 tumor / Accumulation of radioactivity: Heart / Accumulation of radioactivity: Intestines / Accumulation of radioactivity: Kidney / Accumulation of radioactivity: Liver / Accumulation of radioactivity: Lungs / Accumulation of radioactivity: Muscle / Accumulation of radioactivity: Pancreas / Accumulation of radioactivity: Spleen / Accumulation of radioactivity: Stomach / Tumor/blood / Tumor/muscle: HT-29 mouse
Procedure: as §3

NS(=O)(=O)c1nn2cc(-c3ccc(NC(=O)CN4CCN(CC(=O)O)CCN(CC(=O)O)CCN(CC(=O)O)CC4)cc3)nc2s1.[111In+3] [[^111In]ITDA1, [^111In]indium(III)2,2′,2″-(10-(2-oxo-2-((4-(2-sulfamoylimidazo[2,1-b][1,3,4]thiadiazol-6-yl)phenyl)amino)ethyl)-1,4,7,10-tetraazacyclododecan-1,4,7-triyl) triacetic acid]
Accumulation in the transplanted tumor (SPECT/CT) (MDA-MB-231 tumor): not observed | Accumulation of radioactivity in the transplanted tumor (SPECT/CT) (HT-29 tumor): highly observed

NS(=O)(=O)c1nn2cc(-c3ccc(NC(=O)CCC(C(=O)O)N4CCN(CC(=O)[O-])CCN(CC(=O)[O-])CCN(CC(=O)[O-])CC4)cc3)nc2s1.[111In+3] (stereo not drawn) [[^111In]ITDA3]
Accumulation of radioactivity: Blood [1]: 0.06 ± 0.02 % ID/g | Accumulation of radioactivity: Brain [1]: 0.24 ± 0.04 % ID/g | Accumulation of radioactivity: Heart [1]: 1.24 ± 0.19 % ID/g | Accumulation of radioactivity: Intestines [1]: 6.66 ± 0.86 % ID/g | Accumulation of radioactivity: Kidney [1]: 49.65 ± 5.04 % ID/g | Accumulation of radioactivity: Liver [1]: 2.96 ± 0.64 % ID/g | Accumulation of radioactivity: Lungs [1]: 0.93 ± 0.18 % ID/g | Accumulation of radioactivity: MDA-MB-231 tumor [1]: 0.72 ± 0.27 % ID/g | Accumulation of radioactivity: Muscle [1]: 0.99 ± 0.26 % ID/g | Accumulation of radioactivity: Pancreas [1]: 2.00 ± 0.54 % ID/g | Accumulation of radioactivity: Spleen [1]: 0.12 ± 0.02 % ID/g | Accumulation of radioactivity: Stomach [1]: 5.49 ± 0.55 % ID | Tumor/blood [1]: 11.97 ± 6.08 | Tumor/muscle [1]: 0.77 ± 0.32 | Accumulation of radioactivity: Blood (HT-29-transplanted tumor; 1 hour after administration): 0.09 ± 0.01 % ID/g | Accumulation of radioactivity: Brain (HT-29-transplanted tumor; 1 hour after administration): 0.27 ± 0.05 % ID/g | Accumulation of radioactivity: HT-29 tumor (HT-29-transplanted tumor; 1 hour after administration): 1.60 ± 0.16 % ID/g | Accumulation of radioactivity: Heart (HT-29-transplanted tumor; 1 hour after administration): 6.91 ± 0.32 % ID/g | Accumulation of radioactivity: Intestines (HT-29-transplanted tumor; 1 hour after administration): 8.33 ± 0.44 % ID/g | Accumulation of radioactivity: Kidney (HT-29-transplanted tumor; 1 hour after administration): 95.81 ± 9.44 % ID/g | Accumulation of radioactivity: Liver (HT-29-transplanted tumor; 1 hour after administration): 8.42 ± 1.42 % ID/g | Accumulation of radioactivity: Lungs (HT-29-transplanted tumor; 1 hour after administration): 3.58 ± 0.86 % ID/g | Accumulation of radioactivity: Muscle (HT-29-transplanted tumor; 1 hour after administration): 2.47 ± 0.45 % ID/g | Accumulation of radioactivity: Pancreas (HT-29-transplanted tumor; 1 hour after administration): 14.89 ± 3.20 % ID/g | Accumulation of radioactivity: Spleen (HT-29-transplanted tumor; 1 hour after administration): 0.13 ± 0.20 % ID/g | Accumulation of radioactivity: Stomach (HT-29-transplanted tumor; 1 hour after administration): 1.80 ± 0.27 % ID | Tumor/blood (HT-29-transplanted tumor; 1 hour after administration): 18.89 ± 2.68 | Tumor/muscle (HT-29-transplanted tumor; 1 hour after administration): 0.66 ± 0.09 | Accumulation of radioactivity: Blood (HT-29-transplanted tumor; 4 hours after administration): 0.06 ± 0.01 % ID/g | Accumulation of radioactivity: Brain (HT-29-transplanted tumor; 4 hours after administration): 0.26 ± 0.04 % ID/g | Accumulation of radioactivity: HT-29 tumor (HT-29-transplanted tumor; 4 hours after administration): 1.71 ± 0.28 % ID/g | Accumulation of radioactivity: Heart (HT-29-transplanted tumor; 4 hours after administration): 2.87 ± 0.36 % ID/g | Accumulation of radioactivity: Intestines (HT-29-transplanted tumor; 4 hours after administration): 7.2 ± 1.53 % ID/g | Accumulation of radioactivity: Kidney (HT-29-transplanted tumor; 4 hours after administration): 80.09 ± 5.11 % ID/g | Accumulation of radioactivity: Liver (HT-29-transplanted tumor; 4 hours after administration): 6.51 ± 1.50 % ID/g | Accumulation of radioactivity: Lungs (HT-29-transplanted tumor; 4 hours after administration): 2.24 ± 0.44 % ID/g | Accumulation of radioactivity: Muscle (HT-29-transplanted tumor; 4 hours after administration): 1.88 ± 0.13 % ID/g | Accumulation of radioactivity: Pancreas (HT-29-transplanted tumor; 4 hours after administration): 6.2 ± 0.78 % ID/g | Accumulation of radioactivity: Spleen (HT-29-transplanted tumor; 4 hours after administration): 0.04 ± 0.03 % ID/g | Accumulation of radioactivity: Stomach (HT-29-transplanted tumor; 4 hours after administration): 0.83 ± 0.11 % ID | Tumor/blood (HT-29-transplanted tumor; 4 hours after administration): 28.6 ± 3.24 | Tumor/muscle (HT-29-transplanted tumor; 4 hours after administration): 0.92 ± 0.15 | Accumulation of radioactivity: Blood (HT-29-transplanted tumor; 24 hours after administration): 0.06 ± 0.01 % ID/g | Accumulation of radioactivity: Brain (HT-29-transplanted tumor; 24 hours after administration): 0.33 ± 0.07 % ID/g | Accumulation of radioactivity: HT-29 tumor (HT-29-transplanted tumor; 24 hours after administration): 3.02 ± 0.37 % ID/g | Accumulation of radioactivity: Heart (HT-29-transplanted tumor; 24 hours after administration): 2.00 ± 0.38 % ID/g | Accumulation of radioactivity: Intestines (HT-29-transplanted tumor; 24 hours after administration): 11.11 ± 0.85 % ID/g | Accumulation of radioactivity: Kidney (HT-29-transplanted tumor; 24 hours after administration): 70.19 ± 9.28 % ID/g | Accumulation of radioactivity: Liver (HT-29-transplanted tumor; 24 hours after administration): 4.92 ± 1.01 % ID/g | Accumulation of radioactivity: Lungs (HT-29-transplanted tumor; 24 hours after administration): 1.20 ± 0.15 % ID/g | Accumulation of radioactivity: Muscle (HT-29-transplanted tumor; 24 hours after administration): 1.63 ± 0.79 % ID/g | Accumulation of radioactivity: Pancreas (HT-29-transplanted tumor; 24 hours after administration): 3.85 ± 0.68 % ID/g | Accumulation of radioactivity: Spleen (HT-29-transplanted tumor; 24 hours after administration): 0.08 ± 0.05 % ID/g | Accumulation of radioactivity: Stomach (HT-29-transplanted tumor; 24 hours after administration): 0.48 ± 0.04 % ID | Tumor/blood (HT-29-transplanted tumor; 24 hours after administration): 52.06 ± 6.11 | Tumor/muscle (HT-29-transplanted tumor; 24 hours after administration): 2.08 ± 0.67 | Amount of tumor accumulation compared with [^111In]ITDA1 (HT-29-transplanted tumor; from Table 5): lower than that of [^111In]ITDA1 | Amounts of accumulation in normal tissues (in particular, pancreas, stomach, intestines, and lungs) (HT-29-transplanted tumor; from Table 5): small
